These results are taken from US9481610B2, “Use of a fertilizer containing L-amino acid for improving root growth and growth of mycorrhiza” (SweTree Technologies AB, priority 2007, dated 2016).

Molecules are shown by their SMILES.

For assay [1], the system named is Arabidposis thaliana. Kind of assay: Growth and allocation of biomass as affected by nitrogen form in Arabidopsis. In kind it is in vivo. The following applies: sterile culture 21 days, total nitrogen 6 mM.
The subject of assay [2] is Scots pine roots. Kind of assay: Evaluation of mycorrhiza of Scots pine roots (chitin content). Conditions: fertilization with arginine. In kind it is in vivo.

In assay [1], `O=[N+]([O-])O` [nitrate] showed a Root fraction of 0.12 and a Total biomass of 4.63.

As for `N=C(N)NCCC[C@H](N)C(=O)O` [L-Arginine], the “chitin content of roots versus reference (in words)” value in assay [2] is listed as “substantially higher content of chitin in roots”.
